From the kinase profiling compilation of Christmann-Franck et al. (2016)

Legend:
Assay in all cases: KINOMEscan competition binding
Conditions in all cases: compound 10.0 µM
CDKL2 (human) = CDKL2 (human) (UniProt Q92772)
ADCK4 (human) = ADCK4 (human) (UniProt Q96D53)
PRKCE (human) = PRKCE (human) (UniProt Q02156)
PAK2 (human) = PAK2 (human) (UniProt Q13177)
RPS6KA6 KD2 (human) = RPS6KA6 KD2 (human) (UniProt Q9UK32)
MARK4 (human) = MARK4 (human) (UniProt Q96L34)
LYN (human) = LYN (human) (UniProt P07948)
Chain of LYN (human) (P07948 whole entry, looked up): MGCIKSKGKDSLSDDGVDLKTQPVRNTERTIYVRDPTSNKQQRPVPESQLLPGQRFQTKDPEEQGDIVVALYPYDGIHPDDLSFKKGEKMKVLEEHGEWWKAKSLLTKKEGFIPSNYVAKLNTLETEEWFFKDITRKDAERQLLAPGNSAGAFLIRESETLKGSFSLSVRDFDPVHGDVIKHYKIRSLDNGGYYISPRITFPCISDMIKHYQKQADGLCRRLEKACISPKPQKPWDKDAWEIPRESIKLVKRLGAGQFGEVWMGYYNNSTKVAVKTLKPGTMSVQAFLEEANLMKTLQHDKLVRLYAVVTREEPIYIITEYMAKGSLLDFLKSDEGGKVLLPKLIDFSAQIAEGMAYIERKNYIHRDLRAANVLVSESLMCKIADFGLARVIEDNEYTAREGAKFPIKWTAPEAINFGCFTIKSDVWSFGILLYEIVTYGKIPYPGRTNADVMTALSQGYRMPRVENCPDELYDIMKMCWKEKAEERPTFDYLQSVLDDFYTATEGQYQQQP

CAMK2B (human) = CAMK2B (human) (UniProt Q13554)
PIM2 (human) = PIM2 (human) (UniProt Q9P1W9)
Chain of PIM2 (human) (Q9P1W9 whole entry, looked up): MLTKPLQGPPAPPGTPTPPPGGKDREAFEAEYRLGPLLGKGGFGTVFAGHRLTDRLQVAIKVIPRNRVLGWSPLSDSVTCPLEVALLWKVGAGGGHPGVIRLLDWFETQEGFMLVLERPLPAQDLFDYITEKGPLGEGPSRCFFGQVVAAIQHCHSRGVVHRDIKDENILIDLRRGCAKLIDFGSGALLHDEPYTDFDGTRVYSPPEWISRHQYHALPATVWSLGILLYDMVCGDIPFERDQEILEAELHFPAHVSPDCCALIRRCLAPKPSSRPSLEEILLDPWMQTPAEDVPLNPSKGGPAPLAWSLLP

NEK5 (human) = NEK5 (human) (UniProt Q6P3R8)
Chain of NEK5 (human) (Q6P3R8 whole entry, looked up): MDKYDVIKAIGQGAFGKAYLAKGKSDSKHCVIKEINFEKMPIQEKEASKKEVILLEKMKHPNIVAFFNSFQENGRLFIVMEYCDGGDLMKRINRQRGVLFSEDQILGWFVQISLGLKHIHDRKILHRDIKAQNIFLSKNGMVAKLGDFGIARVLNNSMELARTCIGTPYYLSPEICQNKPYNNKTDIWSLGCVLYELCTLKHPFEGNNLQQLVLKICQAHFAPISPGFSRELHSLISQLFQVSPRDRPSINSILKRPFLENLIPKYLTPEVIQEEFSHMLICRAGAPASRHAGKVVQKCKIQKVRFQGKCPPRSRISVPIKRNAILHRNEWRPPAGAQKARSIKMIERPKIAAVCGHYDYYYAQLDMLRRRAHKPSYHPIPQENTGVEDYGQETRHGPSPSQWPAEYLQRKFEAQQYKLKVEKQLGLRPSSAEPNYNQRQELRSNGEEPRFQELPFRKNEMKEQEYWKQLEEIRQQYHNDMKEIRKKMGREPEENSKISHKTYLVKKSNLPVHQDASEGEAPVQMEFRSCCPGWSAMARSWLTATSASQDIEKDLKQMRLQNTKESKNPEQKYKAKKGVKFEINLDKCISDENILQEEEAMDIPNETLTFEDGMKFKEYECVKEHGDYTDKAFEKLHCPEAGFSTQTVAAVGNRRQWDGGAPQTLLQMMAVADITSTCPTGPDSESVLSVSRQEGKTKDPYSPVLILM

CDK17 (human) = CDK17 (human) (UniProt Q00537)
DCLK2 (human) = DCLK2 (human) (UniProt Q8N568)
EPHB3 (human) = EPHB3 (human) (UniProt P54753)
SRPK2 (human) = SRPK2 (human) (UniProt P78362)
DAPK1 (human) = DAPK1 (human) (UniProt P53355)
CSNK1A1L (human) = CSNK1A1L (human) (UniProt Q8N752)
EPHA3 (human) = EPHA3 (human) (UniProt P29320)
DCLK3 (human) = DCLK3 (human) (UniProt Q9C098)
MAPK7 (human) = MAPK7 (human) (UniProt Q13164)
PAK3 (human) = PAK3 (human) (UniProt O75914)
MYO3A (human) = MYO3A (human) (UniProt Q8NEV4)
Chain of MYO3A (human) (Q8NEV4 whole entry, looked up): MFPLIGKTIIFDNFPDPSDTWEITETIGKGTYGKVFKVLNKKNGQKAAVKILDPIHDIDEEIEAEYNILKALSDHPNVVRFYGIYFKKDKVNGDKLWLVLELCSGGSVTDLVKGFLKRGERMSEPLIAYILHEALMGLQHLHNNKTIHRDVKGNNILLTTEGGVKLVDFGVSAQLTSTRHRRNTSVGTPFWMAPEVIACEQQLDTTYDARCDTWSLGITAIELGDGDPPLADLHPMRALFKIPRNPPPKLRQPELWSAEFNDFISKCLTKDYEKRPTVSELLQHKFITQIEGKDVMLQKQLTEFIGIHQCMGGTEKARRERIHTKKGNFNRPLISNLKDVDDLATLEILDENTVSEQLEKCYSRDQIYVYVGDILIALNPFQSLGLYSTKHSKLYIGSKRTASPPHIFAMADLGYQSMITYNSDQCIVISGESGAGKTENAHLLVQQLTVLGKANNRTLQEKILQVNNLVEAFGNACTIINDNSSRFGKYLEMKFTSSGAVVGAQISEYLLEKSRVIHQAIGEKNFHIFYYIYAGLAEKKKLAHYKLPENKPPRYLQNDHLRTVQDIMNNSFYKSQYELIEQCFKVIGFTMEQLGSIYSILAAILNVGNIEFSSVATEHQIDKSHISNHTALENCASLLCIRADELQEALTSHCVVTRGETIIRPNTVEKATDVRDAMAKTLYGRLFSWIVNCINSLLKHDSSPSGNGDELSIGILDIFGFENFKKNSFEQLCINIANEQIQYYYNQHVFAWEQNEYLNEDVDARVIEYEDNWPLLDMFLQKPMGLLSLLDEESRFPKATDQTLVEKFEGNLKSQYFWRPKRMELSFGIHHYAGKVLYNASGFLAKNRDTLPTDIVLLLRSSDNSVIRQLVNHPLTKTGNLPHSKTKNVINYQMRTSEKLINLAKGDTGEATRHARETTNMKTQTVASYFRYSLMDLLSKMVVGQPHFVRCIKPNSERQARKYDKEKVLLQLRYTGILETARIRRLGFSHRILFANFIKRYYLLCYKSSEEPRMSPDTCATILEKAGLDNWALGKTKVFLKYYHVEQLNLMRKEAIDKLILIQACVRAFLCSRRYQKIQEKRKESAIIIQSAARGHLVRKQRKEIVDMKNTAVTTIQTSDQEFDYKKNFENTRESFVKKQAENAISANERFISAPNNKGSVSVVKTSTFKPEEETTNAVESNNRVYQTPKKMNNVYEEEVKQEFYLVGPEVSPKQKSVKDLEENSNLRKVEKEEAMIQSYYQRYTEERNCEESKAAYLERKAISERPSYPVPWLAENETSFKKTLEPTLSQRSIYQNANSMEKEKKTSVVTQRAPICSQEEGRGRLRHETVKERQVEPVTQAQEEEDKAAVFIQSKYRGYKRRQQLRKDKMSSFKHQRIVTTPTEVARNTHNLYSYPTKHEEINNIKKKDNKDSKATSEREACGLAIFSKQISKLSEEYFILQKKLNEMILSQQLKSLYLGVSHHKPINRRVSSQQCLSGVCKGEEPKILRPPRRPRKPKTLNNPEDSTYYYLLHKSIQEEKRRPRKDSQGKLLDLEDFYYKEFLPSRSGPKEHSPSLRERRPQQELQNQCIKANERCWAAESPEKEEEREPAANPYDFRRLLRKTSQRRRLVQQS

MAPK4 (human) = MAPK4 (human) (UniProt P31152)
MAP2K4 (human) = MAP2K4 (human) (UniProt P45985)
EPHB1 (human) = EPHB1 (human) (UniProt P54762)
NEK9 (human) = NEK9 (human) (UniProt Q8TD19)
PIK3CD (human) = PIK3CD (human) (UniProt O00329)
CHEK1 (human) = CHEK1 (human) (UniProt O14757)
TAOK1 (human) = TAOK1 (human) (UniProt Q7L7X3)
CSNK2A1 (human) = CSNK2A1 (human) (UniProt P68400)
Chain of CSNK2A1 (human) (P68400 whole entry, looked up): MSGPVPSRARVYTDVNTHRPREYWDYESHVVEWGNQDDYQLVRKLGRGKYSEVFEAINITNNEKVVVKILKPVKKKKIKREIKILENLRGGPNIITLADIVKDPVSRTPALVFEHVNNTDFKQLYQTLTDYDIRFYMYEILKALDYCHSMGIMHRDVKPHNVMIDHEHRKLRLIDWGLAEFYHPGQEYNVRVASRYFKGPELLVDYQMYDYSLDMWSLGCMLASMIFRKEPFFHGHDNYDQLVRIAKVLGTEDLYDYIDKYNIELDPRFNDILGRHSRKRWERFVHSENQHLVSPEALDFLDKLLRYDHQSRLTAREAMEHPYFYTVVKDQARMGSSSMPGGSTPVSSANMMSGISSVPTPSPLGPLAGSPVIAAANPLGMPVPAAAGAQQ

HIPK2 (human) = HIPK2 (human) (UniProt Q9H2X6)
ICK (human) = ICK (human) (UniProt Q9UPZ9)
HIPK4 (human) = HIPK4 (human) (UniProt Q8NE63)
GRK4 (human) = GRK4 (human) (UniProt P32298)
MAP3K1 (human) = MAP3K1 (human) (UniProt Q13233)
MAP3K15 (human) = MAP3K15 (human) (UniProt Q6ZN16)
MAST1 (human) = MAST1 (human) (UniProt Q9Y2H9)

Chain of RPS6KA6 KD2 (human) (Q9UK32 whole entry, looked up): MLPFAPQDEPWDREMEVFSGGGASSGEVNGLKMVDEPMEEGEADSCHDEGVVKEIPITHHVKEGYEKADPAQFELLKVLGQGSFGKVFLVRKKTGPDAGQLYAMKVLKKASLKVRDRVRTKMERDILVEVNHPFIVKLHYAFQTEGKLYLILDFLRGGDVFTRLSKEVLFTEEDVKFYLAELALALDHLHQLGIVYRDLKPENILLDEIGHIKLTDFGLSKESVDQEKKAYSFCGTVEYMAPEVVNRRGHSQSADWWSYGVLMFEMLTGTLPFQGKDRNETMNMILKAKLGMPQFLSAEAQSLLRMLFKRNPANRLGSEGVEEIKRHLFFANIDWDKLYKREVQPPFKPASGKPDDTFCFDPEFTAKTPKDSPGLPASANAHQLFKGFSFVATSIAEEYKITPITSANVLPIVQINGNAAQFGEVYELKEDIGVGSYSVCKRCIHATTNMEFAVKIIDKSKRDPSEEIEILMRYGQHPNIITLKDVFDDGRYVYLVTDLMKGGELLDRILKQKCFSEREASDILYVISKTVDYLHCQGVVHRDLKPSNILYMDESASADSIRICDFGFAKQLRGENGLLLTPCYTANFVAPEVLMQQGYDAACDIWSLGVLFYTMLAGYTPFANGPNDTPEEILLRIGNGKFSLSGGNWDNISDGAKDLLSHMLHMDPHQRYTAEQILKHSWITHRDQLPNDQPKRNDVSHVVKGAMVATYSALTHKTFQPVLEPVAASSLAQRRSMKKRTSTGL
Chain of ADCK4 (human) (Q96D53 whole entry, looked up): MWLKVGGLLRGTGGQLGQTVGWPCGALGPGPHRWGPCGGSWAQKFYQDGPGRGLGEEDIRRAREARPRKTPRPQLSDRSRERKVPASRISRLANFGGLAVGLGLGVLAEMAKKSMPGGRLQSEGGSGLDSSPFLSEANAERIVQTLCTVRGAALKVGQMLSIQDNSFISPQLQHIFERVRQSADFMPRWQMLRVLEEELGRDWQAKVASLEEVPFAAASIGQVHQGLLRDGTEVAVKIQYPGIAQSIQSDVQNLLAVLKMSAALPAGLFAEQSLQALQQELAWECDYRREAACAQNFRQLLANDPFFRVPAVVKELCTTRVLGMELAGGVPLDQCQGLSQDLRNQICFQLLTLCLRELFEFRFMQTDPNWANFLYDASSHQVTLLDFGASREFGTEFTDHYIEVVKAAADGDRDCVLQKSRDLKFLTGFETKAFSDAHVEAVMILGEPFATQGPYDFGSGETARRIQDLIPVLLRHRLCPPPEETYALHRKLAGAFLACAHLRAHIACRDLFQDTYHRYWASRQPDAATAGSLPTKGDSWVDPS

SMILES	kinase still bound, per cent of control (ADCK4 (human))	kinase still bound, per cent of control (PRKCE (human))	kinase still bound, per cent of control (PAK2 (human))	kinase still bound, per cent of control (RPS6KA6 KD2 (human))	kinase still bound, per cent of control (MARK4 (human))	kinase still bound, per cent of control (LYN (human))	kinase still bound, per cent of control (CAMK2B (human))	kinase still bound, per cent of control (PIM2 (human))	kinase still bound, per cent of control (NEK5 (human))	kinase still bound, per cent of control (CDK17 (human))	kinase still bound, per cent of control (DCLK2 (human))	kinase still bound, per cent of control (EPHB3 (human))	kinase still bound, per cent of control (SRPK2 (human))	kinase still bound, per cent of control (DAPK1 (human))	kinase still bound, per cent of control (CSNK1A1L (human))	kinase still bound, per cent of control (EPHA3 (human))	kinase still bound, per cent of control (DCLK3 (human))	kinase still bound, per cent of control (MAPK7 (human))	kinase still bound, per cent of control (PAK3 (human))	kinase still bound, per cent of control (MYO3A (human))	further results
COc1cc(C)c(Sc2cnc(NC(=O)c3ccc(CNC(C)C(C)C)cc3)s2)cc1C(=O)N1CCN(C(C)=O)CC1 (stereo not given)	100%	100%	100%	100%	100%	100%	100%	100%	100%	100%	100%	100%	100%	100%	100%	25%	4.2%	100%	100%	100%	kinase still bound, per cent of control (CDKL2 (human)): 100%; kinase still bound, per cent of control (MAPK4 (human)): 100%; kinase still bound, per cent of control (MAP2K4 (human)): 100%; kinase still bound, per cent of control (EPHB1 (human)): 24%; kinase still bound, per cent of control (NEK9 (human)): 100%; kinase still bound, per cent of control (PIK3CD (human)): 100%; kinase still bound, per cent of control (CHEK1 (human)): 100%; kinase still bound, per cent of control (TAOK1 (human)): 16%; kinase still bound, per cent of control (CSNK2A1 (human)): 100%
Cc1cn(-c2cc(C(=O)Nc3ccc(C)c(NC(=O)c4ccno4)c3)cc(C(F)(F)F)c2)cn1	100%	100%	100%	100%	100%	4.8%	100%	100%	100%	100%	100%	27%	100%	100%	100%	9.5%	100%	100%	100%	100%	kinase still bound, per cent of control (CDKL2 (human)): 100%; kinase still bound, per cent of control (HIPK2 (human)): 100%; kinase still bound, per cent of control (ICK (human)): 100%; kinase still bound, per cent of control (HIPK4 (human)): 100%; kinase still bound, per cent of control (GRK4 (human)): 100%; kinase still bound, per cent of control (MAP3K1 (human)): 100%; kinase still bound, per cent of control (MAPK4 (human)): 100%; kinase still bound, per cent of control (MAP3K15 (human)): 100%; kinase still bound, per cent of control (MAST1 (human)): 100%; kinase still bound, per cent of control (MAP2K4 (human)): 100%; kinase still bound, per cent of control (EPHB1 (human)): 21%; kinase still bound, per cent of control (NEK9 (human)): 100%; kinase still bound, per cent of control (PIK3CD (human)): 100%; kinase still bound, per cent of control (CHEK1 (human)): 100%; kinase still bound, per cent of control (TAOK1 (human)): 100%; kinase still bound, per cent of control (CSNK2A1 (human)): 100%
COc1cc(N2CCC(C(N)=O)CC2)ccc1Nc1nc(N)c(Cl)c(Nc2ccccc2S(=O)(=O)C(C)C)n1	0%	100%	100%	9%	100%	100%	100%	100%	100%	100%	100%	100%	100%	100%	21%	100%	100%	100%	100%	15%	kinase still bound, per cent of control (CDKL2 (human)): 100%; kinase still bound, per cent of control (MAPK4 (human)): 100%; kinase still bound, per cent of control (MAP2K4 (human)): 22%; kinase still bound, per cent of control (EPHB1 (human)): 100%; kinase still bound, per cent of control (NEK9 (human)): 100%; kinase still bound, per cent of control (PIK3CD (human)): 100%; kinase still bound, per cent of control (CHEK1 (human)): 100%; kinase still bound, per cent of control (TAOK1 (human)): 100%; kinase still bound, per cent of control (CSNK2A1 (human)): 100%
COc1ccc(N(C(=O)Oc2cc(C(=O)Nc3cccc(C(F)(F)F)c3)ccc2C)c2ccnc(Nc3ccc(N4CCN(C)CC4)cc3)n2)c(OC)c1	100%	100%	100%	100%	100%	0.95%	100%	100%	100%	100%	100%	0%	100%	100%	100%	0.1%	100%	15%	11%	100%	kinase still bound, per cent of control (MAPK4 (human)): 100%; kinase still bound, per cent of control (MAP2K4 (human)): 100%; kinase still bound, per cent of control (EPHB1 (human)): 0.15%; kinase still bound, per cent of control (NEK9 (human)): 100%; kinase still bound, per cent of control (CHEK1 (human)): 100%; kinase still bound, per cent of control (CSNK2A1 (human)): 100%
